Test results from article PMC4450258 (Molecular neurobiology, 2014).

Biological target: T1, Sterol carrier protein 2 (SCP-2) (Homo sapiens, UniProt P22307)
T1 sequence (P22307 425-547): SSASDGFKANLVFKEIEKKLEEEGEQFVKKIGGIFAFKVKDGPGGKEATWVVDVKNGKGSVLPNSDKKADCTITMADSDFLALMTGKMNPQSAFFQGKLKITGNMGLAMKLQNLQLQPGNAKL
Format: biochemical

Q: Which “inhibition of recombinant SCP-2-mediated [14C]cholesterol transfer from SUVs to” value does the source give for `CCCCC/C=C\C/C=C\C/C=C\C/C=C\CCCC(=O)NCCO` [AEA, N-arachidonylethanolamine] here?
A: The value was ~ 50 µM.
